Consider two molecules from patent US20250092017A1, “2-PIPERIDYL OR 2-PYRAZOLYL SUBSTITUTED PYRIMIDINE COMPOUND SERVING AS EGFR INHIBITOR” (SUZHOU PUHE BIOPHARMA CO., LTD., priority 2022, published 2025).

The term IC50 denotes the concentration that inhibits the measured activity by half. A word on the CLint scaled: it is the rate of metabolic loss divided by the concentration. Low readings indicate greater metabolic stability, high ones faster metabolism.

One data set deals with EGFR (L858R/C797S) (Homo sapiens, UniProt P00533, C797S/L858R). Nature of the data set: MSA (Mobility Shift Assay) kinase activity, EGFR-L858R-C797S. In kind it is biochemical. In a few lines:
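Kinase preincubated with compound 10 min at room temperature, then reaction started with ATP plus substrate in 1x kinase buffer and run at room temperature. Substrate-to-product conversion read by mobility shift; % inhibition normalised to no-enzyme and no-compound controls, IC50 from variable-slope four-parameter fit.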

For data set [1], the target named is Ba/F3-FL-EGFR-del19-T790M-C797S (Homo sapiens, UniProt P00533, DEL746-750/T790M/C797S, cells depend on it). Nature of the data set: CellTiter-Glo proliferation, Ba/F3-FL-EGFR-del19-T790M-C797S. Type of data set: cell-based. The note with it: 72 hours, read-out: Ba/F3-FL-EGFR-del19-T790M-C797S IC50/nM. As for the experimental part:
Promega CellTiter-Glo reagent was used to detect the effects of small molecule inhibitors on the proliferation of three Ba/F3 cell lines (Ba/F3-FL-EGFR-de119, Ba/F3-FL-EGFR-de119-T790M, Ba/F3-FL-EGFR-de119-T790M-C797S).
The cell lines were cultured in an incubator at 37° C. and 5% CO2. Cells were passaged regularly and cells in the logarithmic phase were used for plating. 95 μL of cell suspension was added to each well of the cell plate, and culture medium without cells (containing 0.1% DMSO) was added to the Min control wells. Substance addition for compound detection cell plate: 5 μL of 20× compound working solution was added to the cell culture plate. 5 μL of DMSO-cell culture medium mixture was added to the Max control, with the final DMSO concentration of 0.1%. 5 μL of DMSO-cell culture medium mixture was added to the Max control. The final DMSO concentration was 0.1%.
Cell viability was detected by CellTiter-Glo luminescence assay. Data analysis:
The cell proliferation inhibition rate (Inhibition Rate) data was processed using the following formula: […]
wherein: RLUDrug represents the relative luminescence unit of the cells with the addition of drug, RLUMin represents the luminescence unit of the culture medium, and RLUMax represents the relative luminescence unit of the cells with the addition of DMSO.
The inhibition rates corresponding to different concentrations of compounds were calculated in EXCEL, and then the inhibition rate curve was plotted using GraphPad Prism software and related parameters including the maximum and minimum inhibition rates of cells and IC50 values were calculated.
For orientation: Cellular ATP, detected with luciferase, serves as a proxy for viable cell number.

In data set [2] the target is Ba/F3-FL-EGFR-L858R-T790M-C797S (Homo sapiens, UniProt P00533, T790M/C797S/L858R, cells depend on it). The data set is described as follows: CellTiter-Glo proliferation, Ba/F3-FL-EGFR-L858R-T790M-C797S. In kind it is cell-based. The note with it: 72 hours, read-out: Ba/F3-FL-EGFR-L858R-T790M-C797S IC50/nM. The procedure, abridged: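 Ba/F3 lines dependent on the indicated EGFR variants were treated with compounds at a final DMSO concentration of 0.1% at 37 °C, 5% CO2. Viability was read by CellTiter-Glo luminescence, and inhibition rate was normalised to DMSO-treated cells (max) and medium-only wells (min). IC50 came from inhibition curves.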

The nature of data set [3]: Liver microsome stability test, human. The note with it: human liver microsomes 0.5 mg/ml, compound 1 μM, NADPH 1 mM, within 60 minutes. In kind it is in vitro ADME. As for the experimental part: The compounds of the present disclosure were subjected to a liver microsome stability test. The compounds to be tested were co-incubated with liver microsomes of different species with or without the addition of NADPH. The final concentration of the compounds to be tested in the test system was 1 μM. The final concentration of NADPH was 1 mM, and the final concentration of liver microsomes was 0.5 mg/ml.

In data set [4] the target is Ba/F3-FL-EGFR-Del19 (E746-A750) (Homo sapiens, UniProt P00533, DEL746-750, cells depend on it). The data set is described as follows: CellTiter-Glo proliferation, Ba/F3-FL-EGFR-Del19. The settings on record: read-out: Ba/F3-FL-EGFR-Del19 (E746-A750), 72 hours.
Data set [5] concerns the target Ba/F3-FL-EGFR-del19/T790M (Homo sapiens, UniProt P00533, DEL746-750/T790M, cells depend on it). Nature of the data set: CellTiter-Glo proliferation, Ba/F3-FL-EGFR-del19/T790M. The note with it: read-out: Ba/F3-FL-EGFR-del19/T790M IC50/nM, 72 hours.

Chain of Ba/F3-FL-EGFR-del19/T790M (P00533 with tags, fused parts or gaps DEL746-750/T790M): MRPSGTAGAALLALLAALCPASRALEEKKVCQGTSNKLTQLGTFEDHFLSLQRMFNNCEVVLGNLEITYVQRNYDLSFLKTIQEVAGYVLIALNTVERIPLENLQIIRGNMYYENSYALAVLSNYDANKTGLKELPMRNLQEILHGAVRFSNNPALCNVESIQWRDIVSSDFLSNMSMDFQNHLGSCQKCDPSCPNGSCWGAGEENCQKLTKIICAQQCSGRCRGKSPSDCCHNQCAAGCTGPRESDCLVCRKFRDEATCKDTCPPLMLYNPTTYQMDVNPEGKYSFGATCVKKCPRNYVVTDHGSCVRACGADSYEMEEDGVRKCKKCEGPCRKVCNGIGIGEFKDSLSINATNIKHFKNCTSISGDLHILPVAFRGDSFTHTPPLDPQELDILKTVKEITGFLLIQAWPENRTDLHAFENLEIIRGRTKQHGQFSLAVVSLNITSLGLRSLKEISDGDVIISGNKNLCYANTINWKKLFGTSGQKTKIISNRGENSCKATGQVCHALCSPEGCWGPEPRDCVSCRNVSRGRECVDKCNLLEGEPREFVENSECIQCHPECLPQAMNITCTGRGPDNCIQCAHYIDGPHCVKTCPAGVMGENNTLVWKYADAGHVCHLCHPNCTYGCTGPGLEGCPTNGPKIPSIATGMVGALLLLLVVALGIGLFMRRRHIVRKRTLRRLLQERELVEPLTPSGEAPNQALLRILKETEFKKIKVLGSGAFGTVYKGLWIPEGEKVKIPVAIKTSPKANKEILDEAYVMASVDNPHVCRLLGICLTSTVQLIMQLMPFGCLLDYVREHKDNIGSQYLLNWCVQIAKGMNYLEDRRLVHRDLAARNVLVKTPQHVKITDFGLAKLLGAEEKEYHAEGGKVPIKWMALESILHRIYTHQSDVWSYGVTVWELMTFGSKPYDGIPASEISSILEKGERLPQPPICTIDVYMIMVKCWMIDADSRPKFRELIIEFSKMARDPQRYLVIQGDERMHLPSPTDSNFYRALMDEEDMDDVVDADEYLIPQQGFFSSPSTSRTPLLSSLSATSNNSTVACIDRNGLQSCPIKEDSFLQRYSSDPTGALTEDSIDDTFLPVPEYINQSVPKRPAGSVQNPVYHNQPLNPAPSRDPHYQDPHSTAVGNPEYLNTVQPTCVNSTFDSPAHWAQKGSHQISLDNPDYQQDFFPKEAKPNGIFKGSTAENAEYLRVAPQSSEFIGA
Chain of EGFR (L858R/C797S) (P00533 25-1210 C797S/L858R): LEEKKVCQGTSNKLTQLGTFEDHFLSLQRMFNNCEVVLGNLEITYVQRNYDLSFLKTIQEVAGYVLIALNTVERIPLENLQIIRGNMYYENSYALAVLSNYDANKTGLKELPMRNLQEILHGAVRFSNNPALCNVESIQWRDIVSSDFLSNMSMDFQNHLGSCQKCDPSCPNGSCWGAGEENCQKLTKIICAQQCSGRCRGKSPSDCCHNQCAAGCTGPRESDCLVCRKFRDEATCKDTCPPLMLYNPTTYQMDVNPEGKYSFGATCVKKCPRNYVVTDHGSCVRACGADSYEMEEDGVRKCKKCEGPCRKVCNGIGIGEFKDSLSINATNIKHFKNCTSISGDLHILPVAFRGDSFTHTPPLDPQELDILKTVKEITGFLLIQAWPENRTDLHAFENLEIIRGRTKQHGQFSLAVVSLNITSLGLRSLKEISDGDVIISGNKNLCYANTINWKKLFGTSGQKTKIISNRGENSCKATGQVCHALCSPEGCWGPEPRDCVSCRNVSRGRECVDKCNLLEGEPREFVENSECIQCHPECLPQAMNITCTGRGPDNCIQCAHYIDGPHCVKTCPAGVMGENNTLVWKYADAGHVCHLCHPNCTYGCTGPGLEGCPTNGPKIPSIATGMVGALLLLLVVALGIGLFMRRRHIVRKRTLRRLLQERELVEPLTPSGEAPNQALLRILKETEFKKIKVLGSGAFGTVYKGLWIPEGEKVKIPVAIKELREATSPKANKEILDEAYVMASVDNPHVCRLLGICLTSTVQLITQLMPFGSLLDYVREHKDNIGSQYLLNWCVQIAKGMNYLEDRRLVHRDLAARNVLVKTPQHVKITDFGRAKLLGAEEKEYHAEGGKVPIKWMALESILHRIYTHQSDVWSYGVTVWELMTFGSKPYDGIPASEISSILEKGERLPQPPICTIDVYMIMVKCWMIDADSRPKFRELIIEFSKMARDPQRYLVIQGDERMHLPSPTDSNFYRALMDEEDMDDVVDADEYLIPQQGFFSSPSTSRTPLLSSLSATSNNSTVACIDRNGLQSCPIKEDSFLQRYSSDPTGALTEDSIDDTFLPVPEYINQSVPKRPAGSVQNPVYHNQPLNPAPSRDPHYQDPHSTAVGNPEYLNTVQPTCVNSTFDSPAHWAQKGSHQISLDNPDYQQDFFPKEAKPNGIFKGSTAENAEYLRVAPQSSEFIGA
Chain of Ba/F3-FL-EGFR-Del19 (E746-A750) (P00533 with tags, fused parts or gaps DEL746-750): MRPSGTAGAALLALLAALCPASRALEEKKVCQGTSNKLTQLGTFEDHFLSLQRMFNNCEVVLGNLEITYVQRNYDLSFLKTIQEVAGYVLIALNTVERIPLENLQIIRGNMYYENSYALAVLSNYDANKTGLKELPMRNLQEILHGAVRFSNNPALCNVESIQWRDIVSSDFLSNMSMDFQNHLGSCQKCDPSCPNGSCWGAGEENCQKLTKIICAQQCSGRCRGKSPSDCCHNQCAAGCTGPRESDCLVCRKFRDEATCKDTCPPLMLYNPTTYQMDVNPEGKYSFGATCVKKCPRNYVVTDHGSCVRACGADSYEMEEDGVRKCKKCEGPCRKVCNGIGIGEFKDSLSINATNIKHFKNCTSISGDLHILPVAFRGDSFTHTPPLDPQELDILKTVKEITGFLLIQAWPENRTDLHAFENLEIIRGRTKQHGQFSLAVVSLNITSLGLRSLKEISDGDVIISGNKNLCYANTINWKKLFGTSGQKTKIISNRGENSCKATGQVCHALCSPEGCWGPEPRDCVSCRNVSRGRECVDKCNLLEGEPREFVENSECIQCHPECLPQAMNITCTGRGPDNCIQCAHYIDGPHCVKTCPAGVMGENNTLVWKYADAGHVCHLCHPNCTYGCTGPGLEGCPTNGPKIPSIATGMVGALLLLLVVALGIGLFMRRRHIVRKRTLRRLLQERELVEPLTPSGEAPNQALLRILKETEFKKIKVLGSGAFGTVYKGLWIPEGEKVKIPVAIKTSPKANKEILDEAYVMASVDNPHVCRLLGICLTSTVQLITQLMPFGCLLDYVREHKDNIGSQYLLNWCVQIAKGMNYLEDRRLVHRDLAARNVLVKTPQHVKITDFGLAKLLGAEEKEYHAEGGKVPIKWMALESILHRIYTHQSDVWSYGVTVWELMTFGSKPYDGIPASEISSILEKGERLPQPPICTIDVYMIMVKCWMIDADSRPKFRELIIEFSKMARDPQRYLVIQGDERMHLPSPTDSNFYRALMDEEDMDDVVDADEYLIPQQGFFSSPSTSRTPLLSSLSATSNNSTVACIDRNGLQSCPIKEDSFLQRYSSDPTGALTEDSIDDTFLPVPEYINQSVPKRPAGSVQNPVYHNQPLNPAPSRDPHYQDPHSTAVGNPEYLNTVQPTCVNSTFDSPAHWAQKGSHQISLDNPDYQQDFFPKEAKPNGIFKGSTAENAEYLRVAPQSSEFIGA
Chain of Ba/F3-FL-EGFR-L858R-T790M-C797S (P00533 whole entry T790M/C797S/L858R): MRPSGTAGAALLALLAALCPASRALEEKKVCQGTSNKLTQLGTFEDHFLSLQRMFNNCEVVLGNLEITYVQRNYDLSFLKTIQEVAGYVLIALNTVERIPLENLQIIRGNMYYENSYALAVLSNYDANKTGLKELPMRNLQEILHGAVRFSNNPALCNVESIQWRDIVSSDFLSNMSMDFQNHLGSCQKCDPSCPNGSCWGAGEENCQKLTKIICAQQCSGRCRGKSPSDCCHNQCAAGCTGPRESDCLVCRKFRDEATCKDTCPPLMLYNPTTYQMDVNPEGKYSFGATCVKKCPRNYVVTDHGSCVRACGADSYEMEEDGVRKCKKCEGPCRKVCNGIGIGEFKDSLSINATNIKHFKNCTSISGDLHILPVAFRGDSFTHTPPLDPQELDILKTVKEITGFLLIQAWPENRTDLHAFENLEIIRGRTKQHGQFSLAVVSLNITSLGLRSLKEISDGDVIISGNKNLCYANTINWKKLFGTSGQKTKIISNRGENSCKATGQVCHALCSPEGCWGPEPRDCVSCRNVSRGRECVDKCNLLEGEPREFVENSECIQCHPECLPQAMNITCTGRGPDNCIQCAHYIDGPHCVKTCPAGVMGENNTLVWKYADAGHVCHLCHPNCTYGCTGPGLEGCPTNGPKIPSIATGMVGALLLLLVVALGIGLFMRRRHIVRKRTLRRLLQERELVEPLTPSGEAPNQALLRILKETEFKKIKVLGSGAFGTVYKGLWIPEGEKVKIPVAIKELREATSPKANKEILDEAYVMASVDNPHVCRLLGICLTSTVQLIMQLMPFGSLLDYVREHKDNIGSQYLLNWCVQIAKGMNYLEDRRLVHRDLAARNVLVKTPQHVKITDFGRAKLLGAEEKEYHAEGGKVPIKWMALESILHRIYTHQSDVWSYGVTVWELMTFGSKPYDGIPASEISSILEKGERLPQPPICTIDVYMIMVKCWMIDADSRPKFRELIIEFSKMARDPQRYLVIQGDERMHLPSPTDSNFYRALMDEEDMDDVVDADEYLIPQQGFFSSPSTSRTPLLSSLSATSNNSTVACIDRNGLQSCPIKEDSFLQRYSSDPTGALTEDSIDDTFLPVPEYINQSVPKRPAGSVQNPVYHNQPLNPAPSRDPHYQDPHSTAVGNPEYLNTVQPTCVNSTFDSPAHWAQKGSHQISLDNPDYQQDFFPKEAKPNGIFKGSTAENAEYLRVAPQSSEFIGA

As to `CC(C)c1ccc(N2C[C@H](CS(C)(=O)=O)[C@H]2C)c2cnc(Nc3ccnc(-c4cnn(S(=O)(=O)C5CC5)c4)n3)cc12` [Compound H12], at EGFR (L858R/C797S), the IC50 was 0.6 nM. The GI50 in data set [1] is 7.8 nM; in data set [2], 16 nM; in data set [4] it was 15 nM; in data set [5] it was 5.1 nM. In addition, in data set [3], the intrinsic clearance (CLint scaled) at 1 μM worked out at 14.2 mL/min/kg.

Regarding `CC(C)c1ccc(N2CC(N(C)S(C)(=O)=O)C2)c2cnc(Nc3ccnc(N4CC[C@@H](O)[C@@H](F)C4)n3)cc12` [Compound P39a], on EGFR (L858R/C797S), the IC50 amounted to 2 nM. For the same molecule, the GI50 is 8.4 nM in data set [1], 8.8 nM in data set [2], 41 nM in data set [4] and 4.4 nM in data set [5]. This molecule also yielded a CLint scaled at 1 μM in data set [3] of under 8.6 mL/min/kg.
